Reference: US20130324428A1, “SPECIFIC BIOMARKER FOR IDENTIFICATION OF EXPOSURE TO LOWER ALIPHATIC SATURATED ALDEHYDES AND THE METHOD OF IDENTIFICATION USING THE SAME” (KOREA INSTITUTE OF SCIENCE AND TECHNOLOGY, priority 2012, published 2013)

Columns and labels:
Type in all cases: cell-based, human
in vitro = conditions: human
Description: (§1) A549 cells (Korean Cell Line Bank), the human lung cancer tissue derived cell line, were cultured in 100 mm dish containing RPMI (Gibro-BRL, USA) supplemented with 10% FBS until the confluency reached 80%. […] The concentration of vehicle was up to 0.1% in every experiment.
(§2) MTT assay was performed with A549 cell line according to the method of Mossman, et al (J. Immunol. Methods, 65, 55-63, 1983).
(§3) Particularly, the cells were distributed in 24-well plate (3.5×10^4 cells/well) containing RPMI (Gibro-BRL, USA) and then treated with lower aliphatic saturated aldehydes dissolved in DMSO. 48 hours later, 5 mg/ml of MTT (3-4,5-dimethylthiazol-2,5-diphenyltetra zolium bromide) was added thereto, followed by culture at 37° C. for 3 hours. Then, the medium was discarded and the formed formazan crystal was dissolved in 500 μl of DMSO, which was aliquoted in 96-well plate. OD540 was measured.

[1] = tested on: B3GALT4 (NM_003782) expression in A549 cells; assay: Oligo microarray gene expression, B3GALT4; conditions: A549 cells treated 48 hours at the IC20 concentration; Cy5/Cy3 ratio vs untreated control
Description: (§4) A549 cells were distributed in 6-well plate at the density of 25×10^4 cells/ml, to which lower aliphatic saturated aldehydes were treated for 48 hours at the concentrations determined in Example <1-2>. Total RNA was extracted from the cells by using trizol reagent according to the manufacturer's protocol (Invitrogen life technologies, USA), followed by purification by using RNease mini kit (Qiagen, USA). Genomic DNA was eliminated by using RNase-free DNase set (Qiagen, USA) during the RNA purification. The amount of total RNA was measured with spectrophotometer, and the concentration was confirmed by ND-1000 Spectrophotometer (Thermo Fisher Scientific Inc., USA) and Agilent 2100 Bioanalyzer (Agilent).
(§5) For oligomicroarray analysis, cDNA was synthesized by using the total RNA obtained from the experimental group treated with lower aliphatic saturated aldehydes prepared in Example <2-1>. 30 μg of the obtained total RNA and 2 μg of oilgo (dT) primer (1 μg/μl) were mixed together, followed by reaction at 65° C. for 10 minutes, which was transferred into ice for annealing. Upon completion of annealing, reagents were added thereto as shown in Table 1 to induce reverse transcription of the annealed RNA. The total RNA extracted from the control group A549 cells was labeled with Cy3-dUTP (green). The total RNA extracted from the experimental group A549 cells treated with lower aliphatic saturated aldehydes was labeled with Cy5-dUTP (red). At that time, the two samples were mixed and purified by using Microcon YM-30 column (Millipore, USA).
(§6) Hybridization and washing processes were performed according to the protocol provided by Ebiogen Inc.
(§7) Labeled cRNA was purified. 600 ng of the purified cRNA was reacted at 60° C. for 30 minutes for fragmentation. The prepared cRNA was mixed with 2×GEx Hybridization Buffer HI-RPM. After well mixing, the mixture was loaded on chip, followed by hybridization in the oven at 65° C. for 17 hours. 17 hours later, the chip was washed with GE Wash Buffer […] and with GE Wash Buffer 2 for 1 minute. Centrifugation was performed with the chip at 800 rpm for 3 minutes, followed by drying thereof.
(§8) Hybridization images on the slide were scanned with Agilent C scanner (Agilent technologies, CA, USA). At that time, the green fluorescent image indicated the activity of gene expressed specifically in the control group, while the red fluorescent image indicated the activity of gene expressed specifically in the experimental group. […] To obtain gene expression rate, the scanned images were analyzed by using Agilent Feature Extraction 10.7.3.1 (Agilent technologies, CA, USA). The extracted data proceeded to normalization by using Agilent GeneSpring GX 11.5.1 (Agilent technologies, CA, USA) to analyze gene expression pattern of each gene. The marker gene for lower aliphatic saturated aldehydes was selected from the obtained data.

[2] = tested on: KIF1A (NM_004321) expression in A549 cells; assay: Oligo microarray gene expression, KIF1A; conditions: A549 cells treated 48 hours at the IC20 concentration; Cy5/Cy3 ratio vs untreated control
Description: as §4, §5, §6, §7, §8

[3] = tested on: DHRS9 (NM_005771) expression in A549 cells; assay: Oligo microarray gene expression, DHRS9; conditions: A549 cells treated 48 hours at the IC20 concentration; Cy5/Cy3 ratio vs untreated control
Description: as §4, §5, §6, §7, §8

[4] = tested on: EMR2 (NM_013447) expression in A549 cells; assay: Oligo microarray gene expression, EMR2; conditions: A549 cells treated 48 hours at the IC20 concentration; Cy5/Cy3 ratio vs untreated control
Description: as §4, §5, §6, §7, §8

[5] = tested on: KIAA1199 (NM_018689) expression in A549 cells; assay: Oligo microarray gene expression, KIAA1199; conditions: A549 cells treated 48 hours at the IC20 concentration; Cy5/Cy3 ratio vs untreated control
Description: as §4, §5, §6, §7, §8

A549 cells = assay: in vitro
Description: as §1, §2, §3

Compound	IC20 at 48 h (in vitro) [µM]	Median ratio of microarray, B3GALT4 [1]	Median ratio of microarray, KIF1A [2]	Median ratio of microarray, DHRS9 [3]	Median ratio of microarray, EMR2 [4]	Median ratio of microarray, KIAA1199 [5]	IC20 (A549 cells) [µM]
CCCCCCC=O [heptanal]	600	0.634	1.955	2.157	2.25	2.815	
CCCC=O [butylaldehyde]		0.498	14.175	2.353	8.094	1.733	4600
CCCCCCCC=O [octanal]	580	0.564	2.262	3.057	1.785	2.294	
CCC=O [propionaldehyde]	2500	0.483	3.814	2.988	6.906	4.454	
CCCCC=O [valeraldehyde]	1700	0.53	7.871	2.088	6.242	3.122	
CCCCCC=O [hexanal]	800	0.574	1.682	1.654	1.89	1.736	
